Data as given in US10174016B2 (BAYER AKTIENGESELLSCHAFT, priority 2014, dated 2019).
Where two headings read alike, the source gives them in different places.

Key:
human P2X2/3 receptor = human P2X2/3 receptor (Homo sapiens (Human), UniProt P56373+Q9UBL9); assay: Intracellular calcium measurement (FLIPR, Fluo-4) of antagonist activity at human P2X2/3 receptors; type: cell-based; details: human P2X2/3, FLIPR calcium assay, agonist α,β-Me-ATP; read-out: hP2X2/3 IC50
Method in brief: (§1)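 Cells expressing human P2X3 or P2X2/3, loaded with Fluo-4, preincubated 30 min at 37° C. with compound (1% DMSO final), then challenged with α,β-Me-ATP at its EC80. Peak FLIPR fluorescence over 90 sec gave % response; IC50, maximal inhibition and Hill slope from triplicates.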

human P2X3 receptor = human P2X3 receptor (Homo sapiens (Human), UniProt P56373); assay: Intracellular calcium measurement (FLIPR, Fluo-4) of antagonist activity at human P2X3 receptors; type: cell-based; details: read-out: hP2X3 IC50
Method in brief: as §1

[1] = human P2X3, FLIPR calcium assay, agonist α,β-Me-ATP

human P2X2/3 receptor, sequence (P56373 whole entry): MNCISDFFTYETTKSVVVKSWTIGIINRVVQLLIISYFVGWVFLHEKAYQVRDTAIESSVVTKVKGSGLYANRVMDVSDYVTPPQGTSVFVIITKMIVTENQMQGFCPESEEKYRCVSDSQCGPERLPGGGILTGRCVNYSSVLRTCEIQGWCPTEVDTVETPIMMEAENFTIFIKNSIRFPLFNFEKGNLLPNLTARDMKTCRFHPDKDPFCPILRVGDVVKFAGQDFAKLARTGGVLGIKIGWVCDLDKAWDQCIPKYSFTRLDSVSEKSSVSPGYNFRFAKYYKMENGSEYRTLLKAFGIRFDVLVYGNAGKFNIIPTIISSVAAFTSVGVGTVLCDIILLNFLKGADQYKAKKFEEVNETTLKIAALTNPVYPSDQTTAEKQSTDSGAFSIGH
human P2X2/3 receptor, sequence (Q9UBL9 whole entry): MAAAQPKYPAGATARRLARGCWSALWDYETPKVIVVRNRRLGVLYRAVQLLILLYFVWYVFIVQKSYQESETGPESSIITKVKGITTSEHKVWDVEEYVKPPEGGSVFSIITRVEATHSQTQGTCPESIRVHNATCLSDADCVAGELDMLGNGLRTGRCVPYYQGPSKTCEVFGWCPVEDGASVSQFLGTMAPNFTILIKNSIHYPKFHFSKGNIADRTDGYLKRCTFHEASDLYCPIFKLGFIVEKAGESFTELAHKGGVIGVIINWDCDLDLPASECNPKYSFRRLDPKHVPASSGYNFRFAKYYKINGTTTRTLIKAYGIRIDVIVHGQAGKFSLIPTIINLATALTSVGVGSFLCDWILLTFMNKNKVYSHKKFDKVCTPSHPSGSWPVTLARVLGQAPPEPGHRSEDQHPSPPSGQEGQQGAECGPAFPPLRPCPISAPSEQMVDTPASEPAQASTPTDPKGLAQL
human P2X3 receptor, sequence (P56373 whole entry): as the sequence (P56373 whole entry) above

| SMILES | IC50 (human P2X2/3 receptor) | IC50 (human P2X3 receptor; [1]) | IC50 (human P2X3 receptor) |
| --- | --- | --- | --- |
| Cc1cnc(-c2cc(OC[C@H]3COCC(=O)N3)cc(C(=O)N[C@H](C)c3cnc(C(F)(F)F)nc3)c2)s1 [Example 396, 3-(5-methyl-1,3-thiazol-2-yl)-5-{[(3R)-5-oxomorpholin-3-yl]methoxy}-N-{(1R)-1-[2-(trifluoromethyl)pyrimidin-5-yl]ethyl}benzamide] | 1800 nM | 22 nM |  |
| Cc1cnc(-c2cc(OC[C@@H]3CN(C)C(=O)O3)cc(C(=O)N[C@H](C)c3cnc(C(F)(F)F)nc3)c2)s1 [Example 397, 3-{[(5S)-3-methyl-2-oxo-1,3-oxazolidin-5-yl]methoxy}-5-(5-methyl-1,3-thiazol-2-yl)-N-{(1R)-1-[2-(trifluoromethyl)pyrimidin-5-yl]ethyl}benzamide] | 1360 nM | 15 nM |  |
| Cc1cnc(-c2cc(OC[C@H]3CN(C)C(=O)O3)cc(C(=O)N[C@H](C)c3cnc(C(F)(F)F)nc3)c2)s1 [Example 398, 3-{[(5R)-3-methyl-2-oxo-1,3-oxazolidin-5-yl]methoxy}-5-(5-methyl-1,3-thiazol-2-yl)-N-{(1R)-1-[2-(trifluoromethyl)pyrimidin-5-yl]ethyl}benzamide] | 1800 nM | 17 nM |  |
| Cc1cnc(-c2cc(OC[C@H]3CN(C)C(=O)CO3)cc(C(=O)N[C@H](C)c3cnc(C(F)(F)F)nc3)c2)s1 [Example 399, 3-{[(2R)-4-methyl-5-oxomorpholin-2-yl]methoxy}-5-(5-methyl-1,3-thiazol-2-yl)-N-{(1R)-1-[2-(trifluoromethyl)pyrimidin-5-yl]ethyl}benzamide] | 1720 nM | 69 nM |  |
| Cc1cnc(-c2cc(OC[C@@H]3CNC(=O)CO3)cc(C(=O)N[C@H](C)c3cnc(C(F)(F)F)nc3)c2)s1 [Example 400, 3-(5-methyl-1,3-thiazol-2-yl)-5-{[(2S)-5-oxomorpholin-2-yl]methoxy}-N-{(1R)-1-[2-(trifluoromethyl)pyrimidin-5-yl]ethyl}benzamide] | 1480 nM | 59 nM |  |
| Cc1cnc(-c2cc(OC[C@@H]3CN(C)C(=O)CO3)cc(C(=O)N[C@H](C)c3cnc(C(F)(F)F)nc3)c2)s1 [Example 401, 3-{[(2S)-4-methyl-5-oxomorpholin-2-yl]methoxy}-5-(5-methyl-1,3-thiazol-2-yl)-N-{(1R)-1-[2-(trifluoromethyl)pyrimidin-5-yl]ethyl}benzamide] | 1470 nM | 30 nM |  |
| Cc1cnc(-c2cc(OC[C@@H]3COCC(=O)N3C)cc(C(=O)N[C@H](C)c3cnc(C(F)(F)F)nc3)c2)s1 [Example 402, 3-{[(3S)-4-methyl-5-oxomorpholin-3-yl]methoxy}-5-(5-methyl-1,3-thiazol-2-yl)-N-{(1R)-1-[2-(trifluoromethyl)pyrimidin-5-yl]ethyl}benzamide] | 1250 nM | 21 nM |  |
| Cc1cnc(-c2cc(OC[C@@H]3COCC(=O)N3)cc(C(=O)N[C@H](C)c3cnc(C(F)(F)F)nc3)c2)s1 [Example 403, 3-(5-methyl-1,3-thiazol-2-yl)-5-{[(3S)-5-oxomorpholin-3-yl]methoxy}-N-{(1R)-1-[2-(trifluoromethyl)pyrimidin-5-yl]ethyl}benzamide] | 2110 nM |  | 56 nM |
| Cc1cnc(-c2cc(OCC34CC(CO3)N(C(=O)OC(C)(C)C)C4)cc(C(=O)N[C@H](C)c3cnc(C(F)(F)F)nc3)c2)s1 (stereo partly drawn) [Example 404, tert-butyl 1-{[3-(5-methyl-1,3-thiazol-2-yl)-5-({(1R)-1-[2-(trifluoromethyl)pyrimidin-5-yl]ethyl}carbamoyl)phenoxy]methyl}-2-oxa-5-azabicyclo[2.2.1]heptane-5-carboxylate] | 533 nM | 44 nM |  |
| Cc1cnc(-c2cc(OCC34CC(CO3)N(C(C)C)C4)cc(C(=O)N[C@H](C)c3cnc(C(F)(F)F)nc3)c2)s1 (stereo partly drawn) [Example 405, 3-[(5-isopropyl-2-oxa-5-azabicyclo[2.2.1]hept-1-yl)methoxy]-5-(5-methyl-1,3-thiazol-2-yl)-N-{(1R)-1-[2-(trifluoromethyl)pyrimidin-5-yl]ethyl}benzamide] | 1560 nM | 17 nM |  |
| Cc1cnc(-c2cc(OCC34CC(CO3)N(C)C4)cc(C(=O)N[C@H](C)c3cnc(C(F)(F)F)nc3)c2)s1 (stereo partly drawn) [Example 406, 3-[(5-methyl-2-oxa-5-azabicyclo[2.2.1]hept-1-yl)methoxy]-5-(5-methyl-1,3-thiazol-2-yl)-N-{(1R)-1-[2-(trifluoromethyl)pyrimidin-5-yl]ethyl}benzamide] | 2030 nM | 26 nM |  |
| CCCN1CC2(COc3cc(C(=O)N[C@H](C)c4cnc(C(F)(F)F)nc4)cc(-c4ncc(C)s4)c3)CC1CO2 (stereo partly drawn) [Example 408, 3-(5-methyl-1,3-thiazol-2-yl)-5-[(5-propyl-2-oxa-5-azabicyclo[2.2.1]hept-1-yl)methoxy]-N-{(1R)-1-[2-(trifluoromethyl)pyrimidin-5-yl]ethyl}benzamide] | 1710 nM | 32 nM |  |
| COC(=O)N1CC2(COc3cc(C(=O)N[C@H](C)c4cnc(C(F)(F)F)nc4)cc(-c4ncc(C)s4)c3)CC1CO2 (stereo partly drawn) [Example 409, Methyl 1-{[3-(5-methyl-1,3-thiazol-2-yl)-5-({(1R)-1-[2-(trifluoromethyl)pyrimidin-5-yl]ethyl}carbamoyl)phenoxy]methyl}-2-oxa-5-azabicyclo[2.2.1]heptane-5-carboxylate] | 976 nM | 22 nM |  |
| CCOC(=O)N1CC2(COc3cc(C(=O)N[C@H](C)c4cnc(C(F)(F)F)nc4)cc(-c4ncc(C)s4)c3)CC1CO2 (stereo partly drawn) [Example 410, Ethyl 1-{[3-(5-methyl-1,3-thiazol-2-yl)-5-({(1R)-1-[2-(trifluoromethyl)pyrimidin-5-yl]ethyl}carbamoyl)phenoxy]methyl}-2-oxa-5-azabicyclo[2.2.1]heptane-5-carboxylate] | 906 nM | 22 nM |  |
| CCN1CCO[C@H](COc2cc(C(=O)N[C@H](C)c3cnc(C(F)(F)F)nc3)cc(-c3ncc(C)s3)c2)C1 [Example 411, 3-{[(2S)-4-ethylmorpholin-2-yl]methoxy}-5-(5-methyl-1,3-thiazol-2-yl)-N-{(1R)-1-[2-(trifluoromethyl)pyrimidin-5-yl]ethyl}benzamide] | 697 nM | 20 nM |  |
| Cc1cnc(-c2cc(OC[C@H]3CNCCO3)cc(C(=O)N[C@@H](C)c3cnc(C(F)(F)F)nc3)c2)s1 [Example 413, 3-(5-methyl-1,3-thiazol-2-yl)-5-[(2R)-morpholin-2-ylmethoxy]-N-{(1S)-1-[2-(trifluoromethyl)pyrimidin-5-yl]ethyl}benzamide] | ≥ 10000 nM | 597 nM |  |
| CCc1cnc(-c2cc(OC[C@@H]3CNCCO3)cc(C(=O)N[C@H](C)c3ccc(C(F)(F)F)nn3)c2)s1 [Example 414, 3-(5-ethyl-1,3-thiazol-2-yl)-5-[(2S)-morpholin-2-ylmethoxy]-N-{(1R)-1-[6-(trifluoromethyl)pyridazin-3-yl]ethyl}benzamide] | 2270 nM | 29 nM |  |
| CCc1cnc(-c2cc(OC[C@H]3CNCCO3)cc(C(=O)N[C@H](C)c3ccc(C(F)(F)F)nn3)c2)s1 [Example 415, 3-(5-ethyl-1,3-thiazol-2-yl)-5-[(2R)-morpholin-2-ylmethoxy]-N-{(1R)-1-[6-(trifluoromethyl)pyridazin-3-yl]ethyl}benzamide] | 2180 nM | 10 nM |  |
| Cc1cnc(-c2cc(OC[C@H]3CN(C)CCO3)cc(C(=O)N[C@@H](C)c3cnc(C(F)(F)F)nc3)c2)s1 [Example 416, 3-{[(2R)-4-methylmorpholin-2-yl]methoxy}-5-(5-methyl-1,3-thiazol-2-yl)-N-{(1S)-1-[2-(trifluoromethyl)pyrimidin-5-yl]ethyl}benzamide] | ≥ 10000 nM |  | 227 nM |
| Cc1cnc(-c2cc(OC[C@@H]3CN(C)CCO3)cc(C(=O)N[C@@H](C)c3cnc(C(F)(F)F)nc3)c2)s1 [Example 417, 3-{[(2S)-4-methylmorpholin-2-yl]methoxy}-5-(5-methyl-1,3-thiazol-2-yl)-N-{(1S)-1-[2-(trifluoromethyl)pyrimidin-5-yl]ethyl}benzamide] | ≥ 10000 nM |  | 434 nM |
| CCc1cnc(-c2cc(OC[C@@H]3CN(C)CCO3)cc(C(=O)N[C@H](C)c3ccc(C(F)(F)F)nn3)c2)s1 [Example 418, 3-(5-Ethyl-1,3-thiazol-2-yl)-5-{[(2S)-4-methylmorpholin-2-yl]methoxy}-N-{(1R)-1-[6-(trifluoromethyl)pyridazin-3-yl]ethyl}benzamide] | 1560 nM | 23 nM |  |
